US20200308222A1, “ANTIMICROBIAL TETRAPEPTIDES” (DSM IP ASSETS B.V., priority 2017, published 2020)
Non-standard residues stand in square brackets, D forms with d. Residues, ends and D or L forms follow the SMILES beside them. *: point of attachment. 2Nal = N[C@@H](Cc1ccc2ccccc2c1)C(=O)O; d2Nal = N[C@H](Cc1ccc2ccccc2c1)C(=O)O; Butanoyl(4-Ph) = O=C(CCCc1ccccc1)*; Dab = NCC[C@H](N)C(=O)O

Key:
Assay in all cases: Minimum inhibitory concentration (MIC), liquid media method in 96-well plates
S. aureus (ATCC 6538) = type: cell-based, Staphylococcus aureus; details: about 7×10^5 cfu/ml per well; incubated 48 hours at 32,5° C.; turbidity read-out
Procedure: (§1) The peptides are dissolved in culture medium at 400 ppm. A control in the microbiological medium alone and a control consisting of Phenonip® prepared to 5% (v/v) directly in the microbiological medium was used. The determination of minimal inhibitory concentration of each product is performed according to a liquid media method adapted in 96-wells plates. To determine the minimum inhibitory concentration (MIC), the peptides are tested in serial dilutions (½ to ½ for 8 dilutions) directly in the liquid culture medium to favor the growth of bacteria in microplate 96 wells. Then, each point of dilution is contaminated with each strain at about 7×10^5 cfu/ml for S. aureus (ATCC 6538), 5.5×10^5 cfu/ml for P. acnes (ATCC 11827) and 1,2×10^5 cfu/ml for B. subtilis (ATCC 6633) per well. Finally, plates are incubated 48 hours at 32, 5° C.±2.5° C., taking care to respect the respiratory type of each strain. […] The last dilution corresponding to the absence of bacterial growth is taken as minimum inhibitory concentration (MIC) for the microbial strain considered.

P. acnes (ATCC 11827) = type: cell-based, Propionibacterium acnes; details: 5.5×10^5 cfu/ml per well; incubated 48 hours at 32,5° C.; turbidity read-out
Procedure: as §1

B. subtilis (ATCC 6633) = type: cell-based, Bacillus subtilis; details: 1,2×10^5 cfu/ml per well; incubated 48 hours at 32,5° C.; turbidity read-out
Procedure: as §1

Row | Compound | MIC values S. aureus (S. aureus (ATCC 6538)) [ppm] | MIC values P. acnes (P. acnes (ATCC 11827)) [ppm] | MIC values B. subtilis (B. subtilis (ATCC 6633)) [ppm]
1 | N=C(N)NCCC[C@H](NC(=O)[C@@H](Cc1ccccc1)NC(=O)[C@H](Cc1c[nH]cn1)NC(=O)CCCc1ccccc1)C(=O)N[C@@H](Cc1ccc2ccccc2c1)C(N)=O [I-a, PhBu-His-D-Phe-Arg-L-2NaphAla-NH2 *2TFA] ({Butanoyl(4-Ph)}-H[dF]R[2Nal]-NH2) | 125 | 500 | 62.5
2 | N=C(N)NCCC[C@H](NC(=O)[C@@H](Cc1ccccc1)NC(=O)[C@H](Cc1c[nH]cn1)NC(=O)CCCc1ccccc1)C(=O)N[C@H](Cc1ccc2ccccc2c1)C(N)=O [I-b, PhBu-His-D-Phe-Arg-D-2NaphAla-NH2 *2TFA] ({Butanoyl(4-Ph)}-H[dF]R[d2Nal]-NH2) | – | 400 | 100
3 | COc1ccc(CCCC(=O)N[C@@H](Cc2c[nH]cn2)C(=O)N[C@H](Cc2ccccc2)C(=O)N[C@@H](CCCNC(=N)N)C(=O)N[C@@H](Cc2c[nH]c3ccccc23)C(N)=O)cc1 [I-c, 4-MeO—PhBu-His-D-Phe-Arg-Trp-NH2 × 2 AcOH] | – | – | 200
4 | CCCN(CCC)C(=O)[C@H](Cc1c[nH]c2ccccc12)NC(=O)[C@H](CCCNC(=N)N)NC(=O)[C@@H](Cc1ccccc1)NC(=O)[C@H](Cc1c[nH]cn1)NC(=O)CCCc1ccccc1 [I-d, PhBu-His-D-Phe-Arg-Trp-N(Propyl)2 *2TFA] | 31.3 | 125 | 15.6
5 | NCC[C@H](NC(=O)[C@@H](Cc1ccccc1)NC(=O)[C@H](Cc1c[nH]cn1)NC(=O)CCCc1ccccc1)C(=O)N[C@@H](Cc1c[nH]c2ccccc12)C(N)=O [I-e, PhBu-His-D-Phe-Dab-Trp-NH2 *2TFA] ({Butanoyl(4-Ph)}-H[dF][Dab]W-NH2) | – | – | 400
6 | N=C(N)NCCC[C@H](NC(=O)[C@@H](Cc1ccccc1)NC(=O)[C@H](Cc1c[nH]cn1)NC(=O)CCCc1ccccc1)C(=O)N[C@@H](Cc1c[nH]c2ccccc12)C(=O)NCc1ccccc1 [I-f, PhBu-His-D-Phe-Arg-Trp-NH-Bn *2TFA] | 400 | – | 252
7 | CCCCCCCCNC(=O)[C@H](Cc1c[nH]c2ccccc12)NC(=O)[C@H](CCCNC(=N)N)NC(=O)[C@@H](Cc1ccccc1)NC(=O)[C@H](Cc1c[nH]cn1)NC(=O)CCCc1ccccc1 [I-g, PhBu-His-D-Phe-Arg-Trp-NH-Octyl *2TFA] | 200 | – | 252
8 | N=C(N)NCCC[C@H](NC(=O)[C@@H](Cc1ccccc1)NC(=O)[C@H](Cc1c[nH]cn1)NC(=O)CCCc1ccccc1)C(=O)N[C@@H](Cc1c[nH]c2ccccc12)C(=O)NCC(O)CO (stereo partly drawn) [I-h, PhBu-His-D-Phe-Arg-Trp-NH—CH2—CH(OH)—CH2OH *2TFA] | – | – | 317
